In brackets after ≈: the same amount, converted by molar mass.
Columns and labels:
[1] = test system: S. aureus RN450; test: Antibacterial activity MIC, Gram+ (Table 9); assay type: cell-based; conditions: Staphylococcus aureus, CAMHB, 35° C., approximately 18 hr
Protocol: (§1) 2 mg of each compound is dissolved in 100 μl of DMSO. The solution is then added to cation-adjusted Mueller Hinton broth (CAMHB), which results in a final compound concentration of 200 μg per ml. The tetracycline compound solutions are diluted to 50 μL volumes, with a test compound concentration of 0.098 μg/ml. Optical density (OD) determinations are made from fresh log-phase broth cultures of the test strains. Dilutions are made to achieve a final cell density of 1×10^6 CFU/ml. At OD=1, cell densities for different genera should be approximately:
(§2) 50 μl of the cell suspensions are added to each well of microtiter plates. The final cell density should be approximately 5×10^5 CFU/ml. These plates are incubated at 35° C. in an ambient air incubator for approximately 18 hr. The plates are read with a microplate reader and are visually inspected when necessary. The MIC is defined as the lowest concentration of the tetracycline compound that inhibits growth.

[2] = test system: E. coli 25922; test: Antibacterial activity MIC, Gram- (Table 9); assay type: cell-based; conditions: Escherichia coli, CAMHB, 35° C., approximately 18 hr
Protocol: as §1, §2

[3] = test system: collagen-induced arthritis (CIA) in male DBA/1 mice; test: CIA model, Example 3 (cumulative scores vs untreated controls); assay type: in vivo; conditions: Mus musculus
Protocol: The CIA model data were acquired according to the following protocol: • 1. Male DBA/1 mice were anaesthetized by i.p. injection of ketamine/xylazine (1.25 mg/ml:0.25 mg/ml, 100 μl/mouse). • 2. Anaesthetized mice were immunized intradermally at the base of the tail with 0.1 or 0.2 ml of an emulsion composed of 100 or 200 μg bovine type II collagen in Complete Freund's Adjuvant (50 μl/spot x 2 or 4 spots). • 3. At day 21 after the immunization, mice received an intradermal boost of 100 μl of an emulsion composed of 100 μg bovine type II collagen in Incomplete Freund's Adjuvant (50 μl/spot x 2 spots) • 4. After onset of disease symptoms (usually 3-4 days after boost), tetracycline derivatives were administered daily into mice via intraperitoneal or oral routes for 8 to 15 days. Methotrexate (12 mg/kg/day) or dexmethasone (4 mg/kg/day) was used as a control for inflammation suppression. • 5. The disease severity was scored daily for 8-15 days after the appearance of the symptoms. Disease severity was graded as following: • a. Visual clinical score for the presence of inflammation in the fingers/toes of the forepaws and hindpaws: • 1. Erythema and mild swelling confined to the mid-foot (tarsals) or ankle joint • 2. Erythema and mild swelling extending from the ankle to the mid-foot • 3. Erythema and moderate swelling extending from the ankle to the metatarsal joints • 4. Erythema and severe swelling encompassing the ankle, foot, and digits. • b. Clinical swelling score for the presence of paw edema in the forepaws and hindpaws: • Paw thickness was measured daily by an engineering micrometer after isofluorane inhalation or ketamine/xylazine (1.25 mg/ml:0.25 mg/ml, 100 μl/mouse) i.p. injection.
Daily scores and paw swelling measurements for each treatment group of mice were added over the total observation period to obtain a cumulative score. Cumulative scores were compared between untreated controls and treated groups to determine tetracycline-induced inhibition.

[4] = test system: collagen-induced arthritis (CIA) in male DBA/1 mice; test: Murine collagen-induced arthritis (CIA) model, Example 2; assay type: in vivo, mouse; conditions: for Change in Paw Thickness (mm) Mean: 12 mg/kg/day i.p.
Protocol: Four non-antibacterial analogues of minocycline (J, W, AF and AT) were synthesized and tested in the murine model of the disease, collagen-induced arthritis (CIA) (See supra). Male DBA/1 mice were immunized intradermally with 200 μg of bovine type II collagen and boosted with collagen three weeks later. Minocycline and four non-antibacterial minocycline derivatives were administered i.p. beginning after disease onset. Paw thickness was measured and animals were scored daily.
(§3) • 1. Male DBA/1 mice were immunized i.d. with an emulsion of 200 μg bovine type II collagen in Complete Freund's Adjuvant. • 2. On day 21, mice received i.d. boost of 100 μg collagen in Incomplete Freund's Adjuvant • 3. Compounds were administered i.p. daily for 7 days starting from disease onset (day 3-4 after boost). • 4. Foot swelling was measured by an engineering micrometer and disease severity was scored accordingly (1, erythema and mild swelling confined to the tarsal or ankle joint; 2, erythema and mild swelling extending from the ankle to the mid-foot; 3, erythema and moderate swelling extending from the ankle to the metatarsal joints; 4, erythema and severe swelling encompassing the ankle, foot, and digits). • 5. Change (Δ) of paw thickness=sum of paw thickness from 4 paws of a mouse (experimental)−sum of baseline paw thickness from 4 paws of the same mouse. • 6. % inhibition=cumulative A paw thickness (disease group−compound-treated group)/cumulative A paw thickness (disease group)

[5] = test system: MMP-9; test: Paw extract biomarker ELISA, CIA mice: MMP-9; assay type: in vivo, mouse; conditions: paw extracts from CIA mice
Protocol: as §3
(§4) • 1. Paws were collected from mice after 5-7 days of dosing and dissected free of skin. • 2. The paws were then homogenized in ice-cold PBS (2 ml/4 paws/mouse) containing 1× protease inhibitor using a Polytron homogenizer. • 3. Debris and particles were removed from the homogenized samples by centrifugation. • 4. Liquid layers were collected for MMP-9, IL-1, IL-6, RANKL, MCP-1, and TNFα analysis using ELISA kits from R & D System.

[6] = test system: IL-1; test: Paw extract biomarker ELISA, CIA mice: IL-1; assay type: in vivo, mouse; conditions: paw extracts from CIA mice
Protocol: as §3, §4

[7] = test system: IL-6; test: Paw extract biomarker ELISA, CIA mice: IL-6; assay type: in vivo, mouse; conditions: paw extracts from CIA mice
Protocol: as §3, §4

[8] = test system: MCP-1; test: Paw extract biomarker ELISA, CIA mice: MCP-1; assay type: in vivo, mouse; conditions: paw extracts from CIA mice
Protocol: as §3, §4

[9] = test system: cytokines (IL-1, IL-6, RANKL and MCP-1) and a matrix metalloproteinase (MMP-9); test: Paw extract biomarker ELISA, CIA mice: whole panel (statements in words); assay type: in vivo, mouse
Protocol: as §3, §4

Row | Compound | MIC [1] [µg/mL] | MIC [2] [µg/mL] | inhibition in vivo at 25 mg/kg [3] [%] | also measured
1 | CC(=O)c1cc(N(C)C)c2c(c1O)C(=O)C1=C(O)[C@]3(O)C(=O)C(C(N)=O)=C(O)C[C@@H]3C[C@@H]1C2 [Compound T] | 4 (≈ 8.76 µM) | > 64 | 44 | inhibition in vivo at 12 mg/kg ([3]; Dose 12 mg/kg): 10%
2 | CCCc1cc(N(C)C)c2c(c1O)C(=O)C1=C(O)[C@]3(O)C(=O)C(C(N)=O)=C(O)[C@@H](N(C)C)[C@@H]3C[C@@H]1C2 [E] | 2 (≈ 4 µM) | > 64 | 44 | –
3 | CCc1ccc2c(c1O)C(=O)C1=C(O)[C@]3(O)C(=O)C(C(N)=O)=C(O)[C@@H](N(C)C)[C@@H]3[C@@H](O)[C@@H]1[C@H]2C [G] | 0.5 (≈ 1.06 µM) | 16 (≈ 33.9 µM) | 55 | –
4 | CCc1cc(N(C)C)c2c(c1O)C(=O)C1=C(O)[C@]3(O)C(=O)C(C(N)=O)=C(O)[C@@H](N(C)C)[C@@H]3C[C@@H]1C2 [H] | 0.5 (≈ 1.03 µM) | > 64 | 41 | –
5 | CO/N=C(\C)c1cc(N(C)C)c2c(c1O)C(=O)C1=C(O)[C@]3(O)C(=O)C(C(N)=O)=C(O)[C@@H](N(C)C)[C@@H]3C[C@@H]1C2 [K] | 4 (≈ 7.57 µM) | > 64 | 30 | –
6 | CN(C)[C@@H]1C(O)=C(C(N)=O)C(=O)[C@@]2(O)C(O)=C3C(=O)c4c(O)ccc(C5=CCNCC5)c4C[C@H]3C[C@@H]12 [L] | 2 (≈ 4.04 µM) | 64 (≈ 129 µM) | 48 | –
7 | CN(Cc1cnc2nc(N)nc(N)c2n1)c1ccc(C(=O)N[C@@H](CCC(=O)O)C(=O)O)cc1 [Methotrexate, methotrexate, reference compound] | – | – | – | % Inhibition (Change in Paw Thickness) AVG ([4]; 12 mg/kg): 45%; % Inhibition (Clinical Score) AVG ([4]; 12 mg/kg): 25%; Change in Paw Thickness (mm) Mean ([4]; day 1 of dosing): 0.77 mm; Change in Paw Thickness (mm) Mean ([4]; day 2 of dosing): 0.68 mm; Change in Paw Thickness (mm) Mean ([4]; day 3 of dosing): 0.71 mm; Change in Paw Thickness (mm) Mean ([4]; day 4 of dosing): 0.68 mm; Change in Paw Thickness (mm) Mean ([4]; day 5 of dosing): 0.67 mm; Change in Paw Thickness (mm) Mean ([4]; day 6 of dosing): 0.56 mm; Change in Paw Thickness (mm) Mean ([4]; day 7 of dosing): 0.45 mm; Change in Paw Thickness (mm) Mean ([4]; day 8 of dosing): 0.28 mm; Percent level of Biomarker Tissue [c] Compared to Untreated Control, MMP-9 AVG [5]: 52%; Percent level of Biomarker Tissue [c] Compared to Untreated Control, IL-1 AVG [6]: 16%; Percent level of Biomarker Tissue [c] Compared to Untreated Control, IL-6 AVG [7]: 20%; Percent level of Biomarker Tissue [c] Compared to Untreated Control, MCP-1 AVG [8]: 37%; Footpad tissue levels of cytokines (IL-1, IL-6, RANKL and MCP-1) and MMP-9 after therapeutic treatment [9]: decreased
8 | CN(C)[C@@H]1C(O)=C(C(N)=O)C(=O)[C@@]2(O)C(O)=C3C(=O)c4c(O)ccc(-c5ccc(O)cc5)c4C[C@H]3C[C@@H]12 [N] | 0.06 (≈ 0.118 µM) | 0.5 (≈ 0.987 µM) | 21 | –
9 | CN(C)c1cc(-c2ncco2)c(O)c2c1C[C@H]1C[C@H]3[C@H](N(C)C)C(O)=C(C(N)=O)C(=O)[C@@]3(O)C(O)=C1C2=O [O] | 32 (≈ 61 µM) | > 64 | 26 | –
10 | CN(C)c1cc(-c2ccsc2)c(O)c2c1C[C@H]1C[C@H]3[C@H](N(C)C)C(O)=C(C(N)=O)C(=O)[C@@]3(O)C(O)=C1C2=O [P] | 0.5 (≈ 0.927 µM) | > 64 | 34 | –
11 | CN(C)[C@@H]1C(O)=C(C(N)=O)C(=O)[C@@]2(O)C(O)=C3C(=O)c4ccccc4C[C@H]3C[C@@H]12 [Q] | 0.5 (≈ 1.25 µM) | 32 (≈ 80.3 µM) | 28 | –

More lines, main results first:

Row | MIC [1] [µg/mL] | MIC [2] [µg/mL] | Compound | inhibition in vivo at 25 mg/kg [3] [%] | also measured
12 | 2 (≈ 3.47 µM) | > 64 | CN(C)c1ccc(-c2cc(N(C)C)c3c(c2O)C(=O)C2=C(O)[C@]4(O)C(=O)C(C(N)=O)=C(O)[C@@H](N(C)C)[C@@H]4C[C@@H]2C3)cc1 [R] | 32 | –
13 | > 64 | > 64 | CN(C)c1cc(-c2ccc(C(N)=O)cc2)c(O)c2c1C[C@H]1C[C@H]3[C@H](N(C)C)C(O)=C(C(N)=O)C(=O)[C@@]3(O)C(O)=C1C2=O [S] | 46 | –
14 | > 64 | > 64 | CN(C)c1cc(C(=O)O)c(O)c2c1C[C@H]1C[C@H]3CC(O)=C(C(N)=O)C(=O)[C@@]3(O)C(O)=C1C2=O [U] | 50 | –
15 | 2 (≈ 4 µM) | > 64 | CCCNC(=O)c1cc(N(C)C)c2c(c1O)C(=O)C1=C(O)[C@]3(O)C(=O)C(C(N)=O)=C(O)C[C@@H]3C[C@@H]1C2 [V] | 43 | –
16 | 2 (≈ 4.15 µM) | > 64 | CN(C)c1cc(-c2ncco2)c(O)c2c1C[C@H]1C[C@H]3CC(O)=C(C(N)=O)C(=O)[C@@]3(O)C(O)=C1C2=O [X] | 40 | –
17 | > 64 | > 64 | CN(C)c1cc(C(=O)N2CCCCC2)c(O)c2c1C[C@H]1C[C@H]3CC(O)=C(C(N)=O)C(=O)[C@@]3(O)C(O)=C1C2=O [Y] | 22 | –
18 | 4 (≈ 7.37 µM) | > 64 | CCO/N=C(\C)c1cc(N(C)C)c2c(c1O)C(=O)C1=C(O)[C@]3(O)C(=O)C(C(N)=O)=C(O)[C@@H](N(C)C)[C@@H]3C[C@@H]1C2 [Z] | 32 | –

Reference: patent US20100190755A1, “TETRACYCLINE COMPOUNDS FOR THE TREATMENT OF RHEUMATOID ARTHRITIS AND RELATED METHODS OF TREATMENT” (priority 2008, published 2010)
